Reference: the supplement of paper PMC7017272
± gives the standard deviation of the averaged measurements.

Legend:
[1] = system: UT-SCC-24A; test: relative IC50 (midpoint of the fitted curve; maximal inhibition may be below 50%); higher = less potent; details: treatment time: 3 days
Description: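 HNSCC cell lines (500 cells/well, 384-well) were cultured on plastic, on top of (2D) or embedded (3D) in Matrigel or human leiomyoma matrix Myogel (500 ug/mL; Myogel 3D mixed with rat collagen I). Cells were treated for 3 days with 5 ten-fold concentrations of each drug, and viability was read by CellTiter-Glo. Viability was normalised to DMSO (0% inhibition) and 100 uM benzethonium chloride (100% inhibition) controls and fitted with the FIMM DSRT pipeline to give IC50 (nM), maximal % inhibition and the drug sensitivity score (DSS). Suffixes _1/_2/_3 on drug names are replicates.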

[2] = system: UT-SCC-106A; test: relative IC50 (midpoint of the fitted curve; maximal inhibition may be below 50%); higher = less potent; details: treatment time: 3 days
Outline: (§1)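 Three growth formats were used for HPV-negative HNSCC cell lines in 384-well plates at 500 cells/well: bare plastic, wells coated with Matrigel or Myogel (500 µg/mL), and embedding in Matrigel or Myogel plus rat collagen I. Compounds were added at five 10-fold concentrations, and after 3 days CellTiter-Glo 2.0 luminescence was recorded and normalised to vehicle (0.1% DMSO) and cell-killing control wells. IC50, maximal inhibition and drug sensitivity score came from percent-inhibition dose–response fitting in the FIMM pipeline.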

[3] = system: UT-SCC-81; test: as above; details: treatment time: 3 days
Outline: as §1

[4] = system: UT-SCC-40; test: as above; details: treatment time: 3 days
Outline: as §1

[5] = system: UT-SCC-28; test: as above; details: culture condition: embedded in Matrigel; treatment time: 3 days
Outline: as §1

[6] = system: UT-SCC-42A; test: as above; details: treatment time: 3 days
Outline: as §1

[7] = system: UT-SCC-24B; test: as above; details: treatment time: 3 days
Outline: as §1

[8] = system: UT-SCC-42B; test: as above; details: treatment time: 3 days
Outline: as §1

[9] = system: UT-SCC-14; test: as above; details: treatment time: 3 days
Outline: as §1

[10] = system: UT-SCC-73; test: as above; details: treatment time: 3 days
Outline: as §1

[11] = system: UT-SCC-44; test: as above; details: treatment time: 3 days
Outline: as §1

[12] = system: UT-SCC-8; test: as above; details: treatment time: 3 days
Outline: as §1

[13] = system: UT-SCC-81; test: maximal % inhibition of viability relative to DMSO; higher = stronger effect; details: treatment time: 3 days
Description: (§2)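 HNSCC cell lines (500 cells/well, 384-well) were cultured on plastic, on top of (2D) or embedded (3D) in Matrigel or human leiomyoma matrix Myogel (500 ug/mL; Myogel 3D mixed with rat collagen I). Cells were treated for 3 days with 5 ten-fold concentrations of each drug, and viability was read by CellTiter-Glo. Viability was normalised to DMSO and benzethonium chloride controls and fitted with the FIMM DSRT pipeline to give IC50 (nM), maximal % inhibition and DSS. Suffixes _1/_2/_3 are replicates. Only inhibition-mode (IC50) fits are kept.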

[14] = system: UT-SCC-40; test: as above; details: treatment time: 3 days
Description: as §2

[15] = system: UT-SCC-42A; test: as above; details: treatment time: 3 days
Description: as §2

[16] = system: UT-SCC-24B; test: as above; details: treatment time: 3 days
Description: as §2

[17] = system: UT-SCC-42B; test: as above; details: treatment time: 3 days
Description: as §2

[18] = system: UT-SCC-73; test: as above; details: treatment time: 3 days
Description: as §2

[19] = system: UT-SCC-44; test: as above; details: treatment time: 3 days
Description: as §2

[20] = system: UT-SCC-8; test: as above; details: treatment time: 3 days
Description: as §2

[21] = culture condition: on top of Myogel
[22] = culture condition: plastic 2D (no matrix)
[23] = culture condition: embedded in Matrigel
[24] = culture condition: on top of Matrigel
[25] = culture condition: embedded in Myogel + collagen I

Cn1cnc2c(F)c(Nc3ccc(Br)cc3Cl)c(C(=O)NOCCO)cc21 [Selumetinib]
relative IC50 [1, 21]: 137 nM
relative IC50 [1, 22]: 87.9 nM
relative IC50 [2, 23]: 56.8 nM
relative IC50 [2, 22]: 56.3 nM
relative IC50 [3, 23]: 53.5 nM
relative IC50 [3, 24]: 95.3 nM
relative IC50 [4, 23]: 50.9 nM
relative IC50 [4, 25]: 41.5 nM
relative IC50 [4, 24]: 61 nM
relative IC50 [5]: 79.9 nM
relative IC50 [6, 25]: 263 nM
relative IC50 [6, 21]: 111 nM
relative IC50 [7, 23]: 169 nM
relative IC50 [7, 25]: 165 nM
relative IC50 [7, 24]: 173 nM
relative IC50 [7, 21]: 177 nM
relative IC50 [7, 22]: 117 nM
relative IC50 [8, 23]: 86.8 nM
relative IC50 [8, 24]: 266 nM
relative IC50 [8, 21]: 268 nM
relative IC50 [9, 23]: 74.2 nM
relative IC50 [9, 24]: 279 nM
relative IC50 [10, 23]: 80 nM
relative IC50 [10, 25]: 78.3 nM
relative IC50 [10, 24]: 83.2 nM
relative IC50 [10, 21]: 122 nM
relative IC50 [10, 22]: 117 nM
relative IC50 [11, 23]: 95.2 nM
relative IC50 [11, 24]: 108 nM
relative IC50 [11, 21]: 151 nM
relative IC50 [12, 23]: 163 nM
relative IC50 [12, 24]: 176 nM
relative IC50 [12, 21]: 139 nM
maximal % inhibition of viability [13, 23]: 87.8 ± 2%
maximal % inhibition of viability [13, 25]: 39.9 ± 7.8%
maximal % inhibition of viability [13, 24]: 82.63 ± 0.81%
maximal % inhibition of viability [13, 21]: 54.2 ± 2.4%
maximal % inhibition of viability [13, 22]: 68.7 ± 4.2%
maximal % inhibition of viability [14, 23]: 79.8 ± 1.3%
maximal % inhibition of viability [14, 25]: 62.5 ± 8%
maximal % inhibition of viability [14, 24]: 75.8 ± 3.5%
maximal % inhibition of viability [14, 21]: 52.1 ± 3.1%
maximal % inhibition of viability [14, 22]: 56.2 ± 5.7%
maximal % inhibition of viability [15, 23]: 54.2 ± 7.8%
maximal % inhibition of viability [15, 25]: 24.9 ± 13%
maximal % inhibition of viability [15, 24]: 55.1 ± 8.1%
maximal % inhibition of viability [15, 21]: 40.7 ± 4.6%
maximal % inhibition of viability [15, 22]: 50.4 ± 6.9%
maximal % inhibition of viability [16, 23]: 87.67 ± 0.5%
maximal % inhibition of viability [16, 25]: 84 ± 4.5%
maximal % inhibition of viability [16, 24]: 86.67 ± 0.21%
maximal % inhibition of viability [16, 21]: 82.5 ± 3.8%
maximal % inhibition of viability [16, 22]: 89.73 ± 0.6%
maximal % inhibition of viability [17, 23]: 67.7 ± 7.4%
maximal % inhibition of viability [17, 24]: 46.9 ± 14%
maximal % inhibition of viability [17, 21]: 17.3 ± 1.7%
maximal % inhibition of viability [17, 22]: 25.6 ± 8.1%
maximal % inhibition of viability [18, 23]: 81.9 ± 1.5%
maximal % inhibition of viability [18, 25]: 54.4 ± 8.1%
maximal % inhibition of viability [18, 24]: 80 ± 1.5%
maximal % inhibition of viability [18, 21]: 65.4 ± 1.1%
maximal % inhibition of viability [18, 22]: 75.3 ± 1.2%
maximal % inhibition of viability [19, 23]: 66.5 ± 25%
maximal % inhibition of viability [19, 25]: 42.2 ± 0.7%
maximal % inhibition of viability [19, 24]: 51.6 ± 3.1%
maximal % inhibition of viability [19, 21]: 41.2 ± 5.3%
maximal % inhibition of viability [19, 22]: 39.8 ± 1.5%
maximal % inhibition of viability [20, 23]: 49.4 ± 8.9%
maximal % inhibition of viability [20, 25]: 33.9 ± 6.9%
maximal % inhibition of viability [20, 24]: 47.1 ± 5.1%
maximal % inhibition of viability [20, 21]: 50.4 ± 5.8%
maximal % inhibition of viability [20, 22]: 53.4 ± 9.7%
